Laboratory results reported in paper PMC9127750, “Structure-based design of CDC42 effector interaction inhibitors for the treatment of cancer” (Cell reports, 2022).
Where “and” joins values, the source holds several entries; their conditions need not be identical. Equal entries are not always repeated.

System: WM3248 melanoma cells, 486 antibodies
Assay: Reverse phase protein arrays (RPPA)
Type: cell-based, Human
Excerpt: Pellets were snap frozen in liquid nitrogen and shipped to MD Anderson Cancer Center core RPPA facility for RPPA analysis (Table S5). Three biological replicates for each sample were generated.
Nomenclatures on the RPPA heatmaps: name_of_antibody.species_of_antibody.status_of_antibody. V - antibody validated; C - validation of antibody in progress; Q - antibody nonspecific; E – under evaluation; antibodies raised in M - mouse, G - goat, R - rabbit, or T - rat.

[1] = Norm_20: replicates 1-3 and Average, relative to 0

Q: CN(C)c1cccc(Nc2cc(-c3ccccc3)nc(C3CCNCC3)n2)c1 [ARN22089, N1,N1-dimethyl-N3-(6-phenyl-2-(piperidin-4-yl)pyrimidin-4-yl)benzene-1,3-diamine] was tested. Which “PEA.15.R.V Average” value (Norm_20, normalized to Norm_0) did it give?
A: 1.052

Q: What about the “PEA.15_pS116.R.V Average” value (Norm_20, normalized to Norm_0) of the same compound?
A: 0.946

Q: And the “PERK.R.V Average” value (Norm_20, normalized to Norm_0)?
A: 1.025

Q: What about the “PGM1.R.V Average” value (Norm_20, normalized to Norm_0) of the same compound?
A: 0.977

Q: And the “PHGDH.R.C Average” value (Norm_20, normalized to Norm_0)?
A: 1.014

Q: What about the “PHLPP.R.V Average” value (Norm_20, normalized to Norm_0) of the same compound?
A: 1.227

Q: What about the “PI3K.p85.R.C Average” value (Norm_20, normalized to Norm_0) of the same compound?
A: 0.845

Q: What about the “PI3K.p110.a.R.C Average” value (Norm_20, normalized to Norm_0) of the same compound?
A: 0.888

Q: And the “PI3K.p110.b.M.C Average” value (Norm_20, normalized to Norm_0)?
A: 0.953

Q: What about the “PKA.a.R.V Average” value (Norm_20, normalized to Norm_0) of the same compound?
A: 0.999

Q: And the “PKC.a.b.II_pT638_T641.R.V Average” value (Norm_20, normalized to Norm_0)?
A: 0.901

Q: And the “PKC.b.II_pS660.R.V Average” value (Norm_20, normalized to Norm_0)?
A: 1.030

Q: And the “PKCa.R.V Average” value (Norm_20, normalized to Norm_0)?
A: 1.322

Q: What about the “PKM2.R.C Average” value (Norm_20, normalized to Norm_0) of the same compound?
A: 1.001

Q: What about the “PLK1.R.C Average” value (Norm_20, normalized to Norm_0) of the same compound?
A: 0.902

Q: What about the “PMS2.R.V Average” value (Norm_20, normalized to Norm_0) of the same compound?
A: 0.963

Q: And the “PR.R.V Average” value (Norm_20, normalized to Norm_0)?
A: 0.888

Q: And the “PRAS40.M.C Average” value (Norm_20, normalized to Norm_0)?
A: 1.217

Q: And the “PRAS40_pT246.R.V Average” value (Norm_20, normalized to Norm_0)?
A: 1.170

Q: And the “PRC1_pT481.R.C Average” value (Norm_20, normalized to Norm_0)?
A: 1.054

Q: What about the “Patched.R.C Average” value (Norm_20, normalized to Norm_0) of the same compound?
A: 1.056

Q: And the “Paxillin.R.C Average” value (Norm_20, normalized to Norm_0)?
A: 0.857

Q: And the “Pdcd4.R.C Average” value (Norm_20, normalized to Norm_0)?
A: 0.984

Q: What about the “Porin.M.V Average” value (Norm_20, normalized to Norm_0) of the same compound?
A: 1.080

Q: And the “p21.R.C Average” value (Norm_20, normalized to Norm_0)?
A: 0.757

Q: And the “p27.Kip1.R.C Average” value (Norm_20, normalized to Norm_0)?
A: 1.199

Q: What about the “p27_pT157.R.C Average” value (Norm_20, normalized to Norm_0) of the same compound?
A: 1.392

Q: What about the “p27_pT198.R.V Average” value (Norm_20, normalized to Norm_0) of the same compound?
A: 1.105

Q: And the “p38.MAPK.R.V Average” value (Norm_20, normalized to Norm_0)?
A: 0.992

Q: And the “p38.MAPK._pT180_Y182.R.V Average” value (Norm_20, normalized to Norm_0)?
A: 0.965

Q: And the “p38.a.M.V Average” value (Norm_20, normalized to Norm_0)?
A: 0.909

Q: And the “p44.42.MAPK.R.V Average” value (Norm_20, normalized to Norm_0)?
A: 1.224

Q: What about the “p53.R.C Average” value (Norm_20, normalized to Norm_0) of the same compound?
A: 1.197

Q: And the “p70.S6K1.R.V Average” value (Norm_20, normalized to Norm_0)?
A: 1.144

Q: What about the “p70.S6K_pT389.R.V Average” value (Norm_20, normalized to Norm_0) of the same compound?
A: 0.981

Q: What about the “p90RSK_pT573.R.C Average” value (Norm_20, normalized to Norm_0) of the same compound?
A: 0.937

Q: And the “PREX1.R.V normalized RPPA signal” value [1]?
A: 1.049 and 0.907 and 1.063 and 1.006

Q: What about the “PTEN.R.V normalized RPPA signal” value [1] of the same compound?
A: 1.227 and 1.032 and 1.101

Q: And the “PTPN12.R.V normalized RPPA signal” value [1]?
A: 0.953 and 1.002 and 1.471 and 1.142

Q: And the “PYGB.R.V normalized RPPA signal” value [1]?
A: 1.322 and 1.252 and 1.214

Q: And the “PYGM.M.C normalized RPPA signal” value [1]?
A: 0.919 and 1.127 and 1.743 and 1.263

Q: And the “Puma.R.C normalized RPPA signal” value [1]?
A: 1.011 and 1.199

Q: What about the “Pyk2_pY402.R.C normalized RPPA signal” value [1] of the same compound?
A: 1.106 and 1.030 and 0.994

Q: And the “RBM15.R.V normalized RPPA signal” value [1]?
A: 1.053 (2×) and 1.142 and 1.083

Q: What about the “RIP3.R.C normalized RPPA signal” value [1] of the same compound?
A: 1.022 and 0.957 and 0.979 and 0.986

Q: What about the “RIP.R.C normalized RPPA signal” value [1] of the same compound?
A: 0.835 and 1.185 and 1.165 and 1.062

Q: What about the “RPA32.R.V normalized RPPA signal” value [1] of the same compound?
A: 1.395 and 1.278 and 1.255

Q: And the “RPA32_pS4_S8.R.C normalized RPPA signal” value [1]?
A: 2.064 and 2.369 and 1.687 and 2.040

Q: What about the “RRM1.R.C normalized RPPA signal” value [1] of the same compound?
A: 0.973 and 0.832 and 0.977 and 0.927

Q: And the “RRM2.R.C normalized RPPA signal” value [1]?
A: 0.797 and 0.718 and 1.114 and 0.876

Q: What about the “RSK1.R.V normalized RPPA signal” value [1] of the same compound?
A: 1.025 and 1.192 and 1.102

Q: And the “RSK.R.C normalized RPPA signal” value [1]?
A: 0.897 and 1.161

Q: And the “Rab11.R.C normalized RPPA signal” value [1]?
A: 0.945 and 1.018

Q: And the “Rab25.R.V normalized RPPA signal” value [1]?
A: 1.022 and 0.964 and 0.955 and 0.980

Q: What about the “Rad17_pS645.R.V normalized RPPA signal” value [1] of the same compound?
A: 0.978 and 0.844 and 0.971

Q: And the “Rad23A.R.C normalized RPPA signal” value [1]?
A: 0.902 and 0.794 and 1.765 and 1.154

Q: What about the “Rad50.R.V normalized RPPA signal” value [1] of the same compound?
A: 1.096 and 1.085 and 1.310 and 1.164

Q: And the “Rad51.R.C normalized RPPA signal” value [1]?
A: 0.693 and 0.792 and 0.842 and 0.776

Q: What about the “Raptor.R.V normalized RPPA signal” value [1] of the same compound?
A: 0.796 and 0.917 and 1.035 and 0.916

Q: What about the “Rb.M.Q normalized RPPA signal” value [1] of the same compound?
A: 0.868 and 1.016 and 1.009 and 0.964

Q: What about the “Rb_pS807_S811.R.V normalized RPPA signal” value [1] of the same compound?
A: 0.751 and 0.680 and 0.842

Q: And the “Rheb.M.C normalized RPPA signal” value [1]?
A: 1.435 and 1.017 and 1.212

Q: And the “Rictor.R.C normalized RPPA signal” value [1]?
A: 0.973 and 1.010 and 1.009

Q: And the “Rictor_pT1135.R.V normalized RPPA signal” value [1]?
A: 0.917 and 1.033 and 0.998

Q: And the “S6.M.V normalized RPPA signal” value [1]?
A: 1.331 and 0.833

Q: What about the “S6_pS235_S236.R.V normalized RPPA signal” value [1] of the same compound?
A: 0.159 and 0.167 and 0.469 and 0.265

Q: What about the “S6_pS240_S244.R.V normalized RPPA signal” value [1] of the same compound?
A: 0.113 and 0.501 and 0.240

Q: What about the “SCD.M.V normalized RPPA signal” value [1] of the same compound?
A: 0.924 and 0.950 and 0.971

Q: And the “SDHA.R.V normalized RPPA signal” value [1]?
A: 1.123 and 1.101 and 1.057

Q: What about the “SF2.R.V normalized RPPA signal” value [1] of the same compound?
A: 1.010 and 0.957

Q: What about the “SFRP1.R.V normalized RPPA signal” value [1] of the same compound?
A: 0.979 and 1.009 and 0.863 and 0.950

Q: And the “SGK1.R.V normalized RPPA signal” value [1]?
A: 0.759 and 0.622 and 1.145 and 0.842

Q: What about the “SGK3.R.V normalized RPPA signal” value [1] of the same compound?
A: 0.855 and 0.956 and 0.913 and 0.908

Q: And the “SHP2.R.V normalized RPPA signal” value [1]?
A: 0.966 and 1.028 and 0.923 and 0.972

Q: What about the “SHP.2_pY542.R.C normalized RPPA signal” value [1] of the same compound?
A: 1.218 and 1.287 and 1.191

Q: What about the “SIRPαR.V normalized RPPA signal” value [1] of the same compound?
A: 1.172 and 0.832 and 0.694 and 0.900

Q: And the “SLC1A5.R.C normalized RPPA signal” value [1]?
A: 1.248 and 1.028 and 1.189 and 1.155

Q: And the “SOD1.M.V normalized RPPA signal” value [1]?
A: 0.834

Q: And the “SOD2.R.V normalized RPPA signal” value [1]?
A: 1.108 and 1.226 and 0.894 and 1.076

Q: And the “SOX7.R.V normalized RPPA signal” value [1]?
A: 1.078 and 1.212 and 1.083 and 1.124

Q: And the “STING.R.V normalized RPPA signal” value [1]?
A: 0.848 and 1.021
